Read-outs that look alike come from different tables or passages of the source.
Key:
[1] = tested on: Hey A8 cells; test: Cell proliferation, MTT assay; format: cell-based
Method: (§1) Cell proliferation was assessed by MTT assay.
(§2) Cell viability was measured by MTT assay and the half maximal inhibitory concentration (IC50) was calculated using GraphPad Prism. Triplicates were performed for each sample and medium alone was used as a blank.
(§3) The anti-proliferative effects of PAK1 degradation and inhibition were evaluated.

[2] = tested on: MCF7 cells; test: Cell proliferation, MTT assay; format: cell-based; settings: Homo sapiens, MCF7, MCF7 cells, read-out: EC50, anti-proliferative
Method: as §1, §2, §3

[3] = molecular target: GSK3A (Homo sapiens, UniProt P49840); test: KINOMEscan; settings: read-out: Percent Control
Method: (§4) The kinase engagement assay (KINOMEscan®) was performed by DiscoverX assessing binding abilities toward a set of kinases.

[4] = molecular target: BRSK1 (Homo sapiens, UniProt Q8TDC3); test: KINOMEscan; settings: read-out: Percent Control
Method: as §4

[5] = molecular target: CSNK1G1 (Homo sapiens, UniProt Q9HCP0); test: KINOMEscan; settings: read-out: Percent Control
Method: as §4

[6] = molecular target: MET(M1250T) (Homo sapiens, UniProt P08581, M1250T); test: KINOMEscan; settings: read-out: Percent Control
Method: as §4

[7] = molecular target: STK16 (Homo sapiens, UniProt O75716); test: KINOMEscan; settings: read-out: Percent Control
Method: as §4

[8] = molecular target: EGFR(S752-1759del) (Homo sapiens, UniProt P00533, DEL752-759); test: KINOMEscan; settings: read-out: Percent Control
Method: as §4

[9] = molecular target: CAMK1D (Homo sapiens, UniProt Q8IU85); test: KINOMEscan; settings: read-out: Percent Control
Method: as §4

[10] = molecular target: IGF1R (Homo sapiens, UniProt P08069); test: KINOMEscan; settings: read-out: Percent Control
Method: as §4

[11] = molecular target: LIMK2 (Homo sapiens, UniProt P53671); test: KINOMEscan; settings: read-out: Percent Control
Method: as §4

[12] = molecular target: EGFR(L858R) (Homo sapiens, UniProt P00533, L858R); test: KINOMEscan; settings: read-out: Percent Control
Method: as §4

[13] = molecular target: WNK1 (Homo sapiens, UniProt Q9H4A3); test: KINOMEscan; settings: read-out: Percent Control
Method: as §4

[14] = molecular target: ULK1 (Homo sapiens, UniProt O75385); test: KINOMEscan; settings: read-out: Percent Control
Method: as §4

[15] = molecular target: NEK9 (Homo sapiens, UniProt Q8TD19); test: KINOMEscan; settings: read-out: Percent Control
Method: as §4

[16] = molecular target: FLT3(D835H) (Homo sapiens, UniProt P36888, D835H); test: KINOMEscan; settings: read-out: Percent Control
Method: as §4

[17] = molecular target: LTK (Homo sapiens, UniProt P29376); test: KINOMEscan; settings: read-out: Percent Control
Method: as §4

[18] = molecular target: KIT(D816V) (Homo sapiens, UniProt P10721, D816V); test: KINOMEscan; settings: read-out: Percent Control
Method: as §4

[19] = molecular target: FER (Homo sapiens, UniProt P16591); test: KINOMEscan; settings: read-out: Percent Control
Method: as §4

[20] = molecular target: PFTK1 (Homo sapiens, UniProt O94921); test: KINOMEscan; settings: read-out: Percent Control
Method: as §4

[21] = molecular target: CDK4-cyclinD1 (Homo sapiens, UniProt P11802); test: KINOMEscan; settings: read-out: Percent Control
Method: as §4

[22] = molecular target: MERTK (Homo sapiens, UniProt Q12866); test: KINOMEscan; settings: read-out: Percent Control
Method: as §4

[23] = molecular target: ABL2 (Homo sapiens, UniProt P42684); test: KINOMEscan; settings: read-out: Percent Control
Method: as §4

[24] = molecular target: TRPM6 (Homo sapiens, UniProt Q9BX84); test: KINOMEscan; settings: read-out: Percent Control
Method: as §4

[25] = molecular target: MEK2 (Homo sapiens, UniProt P36507); test: KINOMEscan; settings: read-out: Percent Control
Method: as §4

[26] = molecular target: BRAF (Homo sapiens, UniProt P15056); test: KINOMEscan; settings: read-out: Percent Control
Method: as §4

[27] = molecular target: EPHA5 (Homo sapiens, UniProt P54756); test: KINOMEscan; settings: read-out: Percent Control
Method: as §4

[28] = molecular target: NEK4 (Homo sapiens, UniProt P51957); test: KINOMEscan; settings: read-out: Percent Control
Method: as §4

[29] = molecular target: YANK2 (Homo sapiens, UniProt Q9NY57); test: KINOMEscan; settings: read-out: Percent Control
Method: as §4

[30] = molecular target: ABL1(H396P)-phosphorylated (Homo sapiens, UniProt P00519, H396P); test: KINOMEscan; settings: read-out: Percent Control
Method: as §4

[31] = molecular target: ALK(C1156Y) (Homo sapiens, UniProt Q9UM73, C1156Y); test: KINOMEscan; settings: read-out: Percent Control
Method: as §4

[32] = molecular target: FLT3(R834Q) (Homo sapiens, UniProt P36888, R834Q); test: KINOMEscan; settings: read-out: Percent Control
Method: as §4

[33] = molecular target: IRAK1 (Homo sapiens, UniProt P51617); test: KINOMEscan; settings: read-out: Percent Control
Method: as §4

[34] = molecular target: MKNK1 (Homo sapiens, UniProt Q9BUB5); test: KINOMEscan; settings: read-out: Percent Control
Method: as §4

[35] = molecular target: NEK3 (Homo sapiens, UniProt P51956); test: KINOMEscan; settings: read-out: Percent Control
Method: as §4

Sequence of YANK2 (Q9NY57 whole entry): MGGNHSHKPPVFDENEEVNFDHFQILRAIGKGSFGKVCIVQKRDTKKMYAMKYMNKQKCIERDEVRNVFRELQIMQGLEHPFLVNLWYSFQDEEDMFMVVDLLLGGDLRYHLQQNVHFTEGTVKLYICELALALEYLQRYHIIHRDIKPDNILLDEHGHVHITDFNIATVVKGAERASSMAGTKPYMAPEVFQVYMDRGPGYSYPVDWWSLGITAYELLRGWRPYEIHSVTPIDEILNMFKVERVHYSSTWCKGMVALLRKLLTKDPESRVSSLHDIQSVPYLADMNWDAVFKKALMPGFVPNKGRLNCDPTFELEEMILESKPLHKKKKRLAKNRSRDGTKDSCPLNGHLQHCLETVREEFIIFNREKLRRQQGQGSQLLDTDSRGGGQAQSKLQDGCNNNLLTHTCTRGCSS
Sequence of CAMK1D (Q8IU85 whole entry): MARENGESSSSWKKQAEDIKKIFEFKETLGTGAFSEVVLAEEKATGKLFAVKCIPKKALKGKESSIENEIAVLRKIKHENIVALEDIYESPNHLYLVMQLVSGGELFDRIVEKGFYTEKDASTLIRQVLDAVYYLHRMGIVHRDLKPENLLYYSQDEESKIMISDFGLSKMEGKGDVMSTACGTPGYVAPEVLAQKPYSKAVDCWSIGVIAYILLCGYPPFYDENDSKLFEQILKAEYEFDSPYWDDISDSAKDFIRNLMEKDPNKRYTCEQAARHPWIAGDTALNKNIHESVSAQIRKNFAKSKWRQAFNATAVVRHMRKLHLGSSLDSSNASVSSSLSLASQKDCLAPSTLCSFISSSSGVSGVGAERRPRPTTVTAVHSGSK
Sequence of EGFR(S752-1759del) (P00533 with tags, fused parts or gaps DEL752-759 limits assumed): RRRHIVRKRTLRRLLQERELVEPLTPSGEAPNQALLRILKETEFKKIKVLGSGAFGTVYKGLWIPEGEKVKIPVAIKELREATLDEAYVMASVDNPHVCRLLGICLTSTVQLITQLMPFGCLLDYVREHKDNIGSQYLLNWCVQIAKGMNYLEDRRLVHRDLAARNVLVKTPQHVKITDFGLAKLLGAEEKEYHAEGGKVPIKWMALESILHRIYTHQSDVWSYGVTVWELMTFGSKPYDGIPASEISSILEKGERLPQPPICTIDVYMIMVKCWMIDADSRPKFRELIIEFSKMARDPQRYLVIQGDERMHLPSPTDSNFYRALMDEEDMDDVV
Sequence of WNK1 (Q9H4A3 whole entry): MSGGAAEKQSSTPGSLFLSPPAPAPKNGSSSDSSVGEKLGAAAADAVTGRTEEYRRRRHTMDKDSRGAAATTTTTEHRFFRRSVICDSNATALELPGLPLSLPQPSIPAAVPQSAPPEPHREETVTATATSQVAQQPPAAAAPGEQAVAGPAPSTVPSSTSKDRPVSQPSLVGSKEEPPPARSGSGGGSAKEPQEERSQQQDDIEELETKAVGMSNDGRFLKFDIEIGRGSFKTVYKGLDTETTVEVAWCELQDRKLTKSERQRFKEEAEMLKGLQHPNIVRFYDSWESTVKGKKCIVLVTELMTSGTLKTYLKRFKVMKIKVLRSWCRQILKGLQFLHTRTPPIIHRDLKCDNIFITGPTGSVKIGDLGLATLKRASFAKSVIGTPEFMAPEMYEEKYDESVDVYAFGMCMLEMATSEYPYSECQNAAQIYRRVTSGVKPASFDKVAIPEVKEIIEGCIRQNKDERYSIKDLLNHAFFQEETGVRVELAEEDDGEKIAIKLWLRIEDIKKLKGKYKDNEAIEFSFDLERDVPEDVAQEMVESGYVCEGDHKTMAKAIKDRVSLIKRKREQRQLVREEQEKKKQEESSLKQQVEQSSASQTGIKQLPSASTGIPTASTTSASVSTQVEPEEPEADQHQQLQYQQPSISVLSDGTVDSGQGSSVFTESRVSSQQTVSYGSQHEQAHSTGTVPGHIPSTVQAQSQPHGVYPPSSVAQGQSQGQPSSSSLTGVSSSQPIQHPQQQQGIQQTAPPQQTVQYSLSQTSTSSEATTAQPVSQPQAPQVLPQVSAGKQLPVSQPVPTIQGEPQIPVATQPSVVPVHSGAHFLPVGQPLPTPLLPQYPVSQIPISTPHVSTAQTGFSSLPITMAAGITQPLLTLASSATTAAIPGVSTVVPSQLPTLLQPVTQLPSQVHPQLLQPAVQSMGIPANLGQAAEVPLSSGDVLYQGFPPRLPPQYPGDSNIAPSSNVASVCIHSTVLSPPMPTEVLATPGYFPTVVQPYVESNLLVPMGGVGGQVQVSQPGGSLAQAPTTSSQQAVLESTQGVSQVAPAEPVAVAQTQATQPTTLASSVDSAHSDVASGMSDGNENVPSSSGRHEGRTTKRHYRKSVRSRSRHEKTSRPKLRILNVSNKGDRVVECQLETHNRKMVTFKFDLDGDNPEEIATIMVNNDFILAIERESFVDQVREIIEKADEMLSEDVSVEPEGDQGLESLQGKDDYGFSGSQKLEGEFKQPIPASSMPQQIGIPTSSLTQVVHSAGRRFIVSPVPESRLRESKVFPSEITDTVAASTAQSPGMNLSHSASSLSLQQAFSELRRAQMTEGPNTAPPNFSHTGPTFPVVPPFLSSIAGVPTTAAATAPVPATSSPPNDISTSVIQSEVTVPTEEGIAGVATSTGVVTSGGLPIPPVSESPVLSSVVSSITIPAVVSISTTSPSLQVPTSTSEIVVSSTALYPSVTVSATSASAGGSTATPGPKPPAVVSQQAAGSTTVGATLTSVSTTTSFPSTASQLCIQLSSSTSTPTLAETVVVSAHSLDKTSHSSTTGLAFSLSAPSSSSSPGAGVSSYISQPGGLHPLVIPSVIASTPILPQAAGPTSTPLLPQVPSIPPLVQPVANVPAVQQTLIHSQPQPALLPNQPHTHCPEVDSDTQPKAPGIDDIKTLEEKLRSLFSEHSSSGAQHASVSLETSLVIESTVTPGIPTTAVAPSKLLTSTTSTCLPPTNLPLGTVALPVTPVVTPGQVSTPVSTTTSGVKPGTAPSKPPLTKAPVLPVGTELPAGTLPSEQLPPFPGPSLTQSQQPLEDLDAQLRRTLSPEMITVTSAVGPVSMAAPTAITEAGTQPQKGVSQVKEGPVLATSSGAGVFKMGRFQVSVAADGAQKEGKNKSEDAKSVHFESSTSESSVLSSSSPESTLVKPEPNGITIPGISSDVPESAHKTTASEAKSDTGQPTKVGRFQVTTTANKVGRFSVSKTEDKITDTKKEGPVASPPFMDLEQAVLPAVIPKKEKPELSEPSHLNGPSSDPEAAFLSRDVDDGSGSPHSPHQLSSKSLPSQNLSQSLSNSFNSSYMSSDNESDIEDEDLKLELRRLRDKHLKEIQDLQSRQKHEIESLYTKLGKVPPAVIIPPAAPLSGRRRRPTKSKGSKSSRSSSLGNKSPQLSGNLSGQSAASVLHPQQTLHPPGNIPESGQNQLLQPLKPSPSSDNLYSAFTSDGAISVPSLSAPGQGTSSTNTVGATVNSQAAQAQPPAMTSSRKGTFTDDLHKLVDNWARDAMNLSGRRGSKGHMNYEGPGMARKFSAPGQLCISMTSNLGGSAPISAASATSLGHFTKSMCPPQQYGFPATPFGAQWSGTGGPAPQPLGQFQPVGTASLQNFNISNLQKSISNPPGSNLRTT
Sequence of IRAK1 (P51617 whole entry): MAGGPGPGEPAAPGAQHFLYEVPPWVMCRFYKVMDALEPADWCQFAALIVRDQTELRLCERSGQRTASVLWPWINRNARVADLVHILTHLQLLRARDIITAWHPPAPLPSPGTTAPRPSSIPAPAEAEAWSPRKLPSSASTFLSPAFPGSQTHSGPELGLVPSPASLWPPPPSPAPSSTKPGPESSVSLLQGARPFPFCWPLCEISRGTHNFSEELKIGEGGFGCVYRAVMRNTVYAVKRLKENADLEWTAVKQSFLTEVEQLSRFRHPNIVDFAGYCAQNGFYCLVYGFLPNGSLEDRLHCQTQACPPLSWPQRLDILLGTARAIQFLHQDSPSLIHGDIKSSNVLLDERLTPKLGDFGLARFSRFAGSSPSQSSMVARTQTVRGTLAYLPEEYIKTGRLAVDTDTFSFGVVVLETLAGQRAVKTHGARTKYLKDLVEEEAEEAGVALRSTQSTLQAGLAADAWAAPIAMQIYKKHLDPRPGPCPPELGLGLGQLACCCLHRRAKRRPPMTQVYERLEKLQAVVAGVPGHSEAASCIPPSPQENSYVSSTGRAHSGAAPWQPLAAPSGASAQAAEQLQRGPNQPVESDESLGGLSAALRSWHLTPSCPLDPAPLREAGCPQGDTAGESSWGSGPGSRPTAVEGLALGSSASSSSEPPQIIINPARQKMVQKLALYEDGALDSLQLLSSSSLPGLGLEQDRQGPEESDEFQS
Sequence of GSK3A (P49840 whole entry): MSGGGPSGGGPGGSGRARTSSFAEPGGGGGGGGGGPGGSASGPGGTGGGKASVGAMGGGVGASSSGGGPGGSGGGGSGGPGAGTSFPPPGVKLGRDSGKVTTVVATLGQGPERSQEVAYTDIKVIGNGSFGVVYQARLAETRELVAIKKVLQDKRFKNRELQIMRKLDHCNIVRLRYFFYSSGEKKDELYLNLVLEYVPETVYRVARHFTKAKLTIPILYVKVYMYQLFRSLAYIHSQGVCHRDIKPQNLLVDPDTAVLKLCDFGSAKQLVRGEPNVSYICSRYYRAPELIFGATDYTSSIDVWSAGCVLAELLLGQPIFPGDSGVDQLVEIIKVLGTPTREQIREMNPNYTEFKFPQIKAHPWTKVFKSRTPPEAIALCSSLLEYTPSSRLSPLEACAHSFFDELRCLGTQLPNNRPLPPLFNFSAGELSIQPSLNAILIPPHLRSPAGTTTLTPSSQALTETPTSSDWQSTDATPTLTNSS
Sequence of STK16 (O75716 whole entry): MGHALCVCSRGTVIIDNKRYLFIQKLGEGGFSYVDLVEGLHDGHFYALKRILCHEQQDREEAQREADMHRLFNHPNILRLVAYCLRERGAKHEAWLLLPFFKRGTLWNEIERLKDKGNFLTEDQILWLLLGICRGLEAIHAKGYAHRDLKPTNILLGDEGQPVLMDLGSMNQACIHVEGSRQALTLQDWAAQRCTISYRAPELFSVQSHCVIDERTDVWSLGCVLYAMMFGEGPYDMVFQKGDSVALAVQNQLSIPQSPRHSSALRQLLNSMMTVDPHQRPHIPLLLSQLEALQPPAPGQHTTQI

O=C1CCC(N2C(=O)c3cccc(NCCCCCCCCNC(=O)N4CC[C@H](NC5=Nc6cc(F)ccc6N(CC(F)F)c6ccc(Cl)cc65)C4)c3C2=O)C(=O)N1 (stereo partly drawn) [BJG-05-039, (3S)-3-((2-Chloro-5-(2,2-difluoroethyl)-8-fluoro-5H-dibenzo[b,e][1,4]diazepin-11-yl)amino)-N-(8-((2-(2,6-dioxopiperidin-3-yl)-1,3-dioxoisoindolin-4-yl)amino)octyl)pyrrolidine-1-carboxamide]
Effect on cell proliferation ([1]; HEY-A8 cells (PAK2-dependent)): Neither BJG-05-039 or NVS-PAK1-1 significantly affected cell proliferation
EC50 ([1]; Hey A8 cells (PAK2-dependent), read-out: EC50, anti-proliferative): 36 µM
EC50 ([2]; first statement of b311): 0.003 µM
EC50 ([2]; second listing of b311): 0.086 µM
remaining binding at 10 µM [3]: 50%
remaining binding at 10 µM [4]: 51%
remaining binding at 10 µM [5]: 52%
remaining binding at 10 µM [6]: 61%
remaining binding at 10 µM [7]: 62%
remaining binding at 10 µM [8]: 67%
remaining binding at 10 µM [9]: 68%
remaining binding at 10 µM [10]: 70%
remaining binding at 10 µM [11]: 72%
remaining binding at 10 µM [12]: 74%
remaining binding at 10 µM [13]: 74%
remaining binding at 10 µM [14]: 78%
remaining binding at 10 µM [15]: 82%
remaining binding at 10 µM [16]: 83%
remaining binding at 10 µM [17]: 84%
remaining binding at 10 µM [18]: 87%
remaining binding at 10 µM [19]: 88%
remaining binding at 10 µM [20]: 88%
remaining binding at 10 µM [21]: 90%
remaining binding at 10 µM [22]: 90%
remaining binding at 10 µM [23]: 94%
remaining binding at 10 µM [24]: 94%
remaining binding at 10 µM [25]: 96%
remaining binding at 10 µM [26]: 98%
remaining binding at 10 µM [27]: 99%
remaining binding at 10 µM [28]: 99%
remaining binding at 10 µM [29]: 99%
remaining binding at 10 µM [30]: 100%
remaining binding at 10 µM [31]: 100%
remaining binding at 10 µM [32]: 100%
remaining binding at 10 µM [33]: 100%
remaining binding at 10 µM [34]: 100%
remaining binding at 10 µM [35]: 100%
